US10894014B2, “Orodispersible tablet containing Estetrol” (ESTETRA SPRL, priority 2015, dated 2021)

Experiments:
[1] = biological target: T1, sex hormone binding globulin (SHBG) (Homo sapiens, UniProt P04278); settings: in vitro; cited from earlier work
T1 sequence (P04278 30-402): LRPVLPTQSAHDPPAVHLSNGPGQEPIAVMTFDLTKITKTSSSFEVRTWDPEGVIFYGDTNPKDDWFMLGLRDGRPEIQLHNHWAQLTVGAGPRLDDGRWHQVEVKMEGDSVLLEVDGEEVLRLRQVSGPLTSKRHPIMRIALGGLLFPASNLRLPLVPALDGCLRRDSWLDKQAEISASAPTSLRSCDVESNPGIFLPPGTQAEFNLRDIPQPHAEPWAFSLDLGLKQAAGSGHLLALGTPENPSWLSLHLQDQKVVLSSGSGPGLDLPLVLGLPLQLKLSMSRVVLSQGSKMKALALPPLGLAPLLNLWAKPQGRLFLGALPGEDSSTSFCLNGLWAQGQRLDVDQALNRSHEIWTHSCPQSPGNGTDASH

[2] = Randomized, open-label, two-period, cross-over pharmacokinetic study, sublingual vs oral estetrol tablet; format: in vivo, healthy female volunteers; settings: 10 mg estetrol sublingual vs oral tablet
Procedure: A randomized, open-label, two-period, cross-over, pharmacokinetic study is conducted to compare sublingual bioavailability of 10 mg estetrol administered in one 80 mg tablet with oral availability of estetrol contained in a 83 mg tablet containing 10 mg estetrol. These tablets are administered sublingually and orally to healthy female volunteers under fasting conditions.
Ten healthy female subjects are selected on the basis of the following criteria: age of 45-65 years (inclusive), nonsmokers or past smokers (at least 6 months before dosing), body-mass index (BMI)=18.5 to 30 kg/m^2 (inclusive at the time of the screening).
At the start of the first and the second period of the study, between 07:00 am and 07:28 am, 5 subjects receive a single dose of the sublingual formulation of estetrol by administering one estetrol tablet (tablet weight 80 mg; 10 mg estetrol) and 5 subjects receive a single oral dose of the oral estetrol formulation by administering one estetrol tablet (tablet weight 83 mg; 10 mg estetrol), ingested together with 200 ml water. […]
The estetrol concentration in the collected blood samples is determined by means of HPLC/MS/MS. The concentrations of glucuronided estetrol (D-ring) in the urine samples is also determined with the help of HPLC/MS/MS.

[3] = humans, cited from earlier work
estrogen receptors = settings: in vitro; cited from earlier work
[4] = tested on: vagina, uterus, body weight, bone mass, bone strength, hot flushes, ovulation; settings: dose-dependent; cited from earlier work
production of SHBG = settings: in vitro; cited from earlier work
[5] = tested on: human breast cancer cells; settings: in vitro; cited from earlier work
DMBA mammary tumour = settings: extent and dose level similar to tamoxifen and to ovariectomy; cited from earlier work

## C[C@]12CC[C@@H]3c4ccc(O)cc4CC[C@H]3[C@@H]1[C@@H](O)[C@@H](O)[C@@H]2O [estetrol, 1,3,5 (10)-estratrien-3,15α,16α,17β-tetrol]
[1]
  binding to SHBG: does not bind
[2]
  impact on a liver function parameter: less impact on a liver function parameter
[3]; oral
  oral bioavailability: high and dose-proportional
[3]
  terminal elimination half-life: about 28 hours
Estrogen receptors
  binding to estrogen receptors, selectivity: binds highly selective to the estrogen receptors with preference for the ERα form
[4]
  estrogenic effects in rat models: estrogenic effects on the vagina, the uterus (both myometrium and endometrium), body weight, bone mass, bone strength, hot flushes and on ovulation (inhibition)
Production of SHBG
  stimulation of production of SHBG: does not stimulate
[5]
  effect in the presence of 17β-estradiol: anti-estrogenic effect
DMBA mammary tumour
  tumour development: prevented tumour development
